Reference: US6737383B1, “Herbicidal oxadiazolidines” (priority 1999, dated 2004)

What was measured:
bedstraw = test: Test B pre/postemergence bedstraw; type: in vivo, Galium aparine; conditions: Preemergence
Procedure, shortened: (§1)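 Response is a visual 0-to-10 score relative to untreated plants, where 0 means no effect and 10 means complete control, taken twelve to sixteen days after application. Treatments went onto soil at planting and onto foliage of 1- to 4-leaf plants, using a surfactant-containing non-phytotoxic solvent.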

rice = test: Test B flood test rice; type: in vivo, Oryza sativa
Procedure, shortened: (§2)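 Each value is a visual injury score relative to controls, with 10 meaning complete control and 0 no effect. Evaluation took place twelve to sixteen days after the 2-leaf-stage plants were treated and kept in the greenhouse.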

bamyardgrass = test: Test B flood test barnyardgrass; type: in vivo, Echinochloa crus-galli
Procedure, shortened: as §2

surinam grass = test: Test B pre/postemergence surinam grass; type: in vivo, Brachiaria decumbens
Procedure, shortened: as §1

velvetleaf = test: Test B pre/postemergence velvetleaf; type: in vivo, Abutilon theophrasti
Procedure, shortened: as §1

cocklebur = test: Test B pre/postemergence cocklebur; type: in vivo, Xanthium strumarium
Procedure, shortened: as §1

crabgrass = test: Test B pre/postemergence crabgrass; type: in vivo, Digitaria sanguinalis
Procedure, shortened: as §1

purple nutsedge = test: Test B pre/postemergence purple nutsedge; type: in vivo, Cyperus rotundus
Procedure, shortened: as §1

wild oat = test: Test B pre/postemergence wild oat; type: in vivo, Avena fatua
Procedure, shortened: as §1

pigweed = test: Test B pre/postemergence pigweed; type: in vivo, Amaranthus retroflexus
Procedure, shortened: as §1

corn = test: Test B pre/postemergence corn; type: in vivo, Zea mays
Procedure, shortened: as §1

sugar beet = test: Test B pre/postemergence sugar beet; type: in vivo, Beta vulgaris
Procedure, shortened: as §1

smallflower flatsedge = test: Test B flood test smallflower flatsedge; type: in vivo, Cyperus difformis
Procedure, shortened: as §2

giant foxtail = test: Test B pre/postemergence giant foxtail; type: in vivo, Setaria faberii
Procedure, shortened: as §1

blackgrass = test: Test B pre/postemergence blackgrass; type: in vivo, Alopecurus myosuroides
Procedure, shortened: as §1

soybean = test: Test B pre/postemergence soybean; type: in vivo, Glycine max
Procedure, shortened: as §1

[1] = Rate 62 g/ha, flood test species, Pre-emergence, visual evaluation after twelve to sixteen days
[2] = Rate 125 g/ha, under heading Pre-emergence, flood test species, visual evaluation after twelve to sixteen days
[3] = Rate 250 g/ha, Pre-emergence (flood test species), scale 0 to 10, 0 is no effect, 10 is complete control
[4] = Rate 500 g/ha, Pre-emergence section of Table B, 0 to 10 scale (0 no effect, 10 complete control)
[5] = Postemergence, Rate 62 g/ha, scale 0 to 10, 0 is no effect, 10 is complete control
[6] = Postemergence, Rate 125 g/ha, scale of 0 to 10 where 0 is no effect and 10 is complete control
[7] = Postemergence, Rate 250 g/ha, scale of 0 to 10, 0 is no effect, 10 is complete control
[8] = Preemergence, Rate 62 g/ha, scale of 0 to 10 where 0 is no effect and 10 is complete control
[9] = Preemergence, Rate 125 g/ha, scale of 0 to 10 where 0 is no effect and 10 is complete control
[10] = Preemergence, Rate 250 g/ha, scale 0 to 10 (0 no effect, 10 complete control)
[11] = Preemergence, Rate 500 g/ha, scale of 0 to 10 where 0 is no effect and 10 is complete control
[12] = Rate 500 g/ha, Postemergence, scale 0 to 10, 0 is no effect, 10 is complete control

Q: Which results are given for `C=C(Cc1ccccc1)Cn1c(=O)on(C(=O)N(c2ccccc2)C(C)C)c1=O` [Compound 650]?
A: Bedstraw plant response rating (bedstraw; Rate 62 g/ha, scale of 0 to 10 where 0 is no effect and 10 is complete control): 0; Bedstraw plant response rating (bedstraw; Rate 125 g/ha, scale of 0 to 10 where 0 is no effect and 10 is complete control): 0; Plant response rating, Bedstraw (bedstraw; Rate 250 g/ha, scale 0 to 10 (0 no effect, 10 complete control)): 0; Plant response rating, Bedstraw (bedstraw; Rate 500 g/ha, scale of 0 to 10 where 0 is no effect and 10 is complete control): 5; Plant response rating, Rice (0 to 10 scale, 0 is no effect, 10 is complete control) (rice; [1]): 0; Rice plant response rating (0 to 10 scale, 0 is no effect, 10 is complete control) (rice; [2]): 0; Rice plant response rating (rice; [3]): 0; Rice plant response rating (rice; [4]): 0; Plant response rating, Barnyardgrass (0 to 10 scale, 0 is no effect, 10 is complete control) (bamyardgrass; [1]): 0; Barnyardgrass plant response rating (0 to 10 scale, 0 is no effect, 10 is complete control) (bamyardgrass; [2]): 0; Barnyardgrass plant response rating (bamyardgrass; [3]): 0; Barnyardgrass plant response rating (bamyardgrass; [4]): 0; Plant response rating, B. signalgrass (surinam grass; [5]): 0; Plant response rating, B. signalgrass (surinam grass; [6]): 0; B. signalgrass plant response rating (surinam grass; [7]): 0; B. signalgrass plant response rating (surinam grass; [8]): 0; B. signalgrass plant response rating (surinam grass; [9]): 0; Plant response rating, B. signalgrass (surinam grass; [10]): 0; Plant response rating, B. signalgrass (surinam grass; [11]): 4; B. signalgrass plant response rating (surinam grass; [12]): 2; Plant response rating, Velvetleaf (velvetleaf; [5]): 0; Velvetleaf plant response rating (velvetleaf; [6]): 0; Velvetleaf plant response rating (velvetleaf; [8]): 0; Velvetleaf plant response rating (velvetleaf; [9]): 0; Plant response rating, Velvetleaf (velvetleaf; [10]): 0; Plant response rating, Velvetleaf (velvetleaf; [11]): 0; Velvetleaf plant response rating (velvetleaf; [12]): 2; Plant response rating, Cocklebur (cocklebur; [5]): 0; Cocklebur plant response rating (cocklebur; [6]): 0; Cocklebur plant response rating (cocklebur; [7]): 0; Cocklebur plant response rating (cocklebur; [8]): 0; Cocklebur plant response rating (cocklebur; [9]): 0; Plant response rating, Cocklebur (cocklebur; [10]): 0; Plant response rating, Cocklebur (cocklebur; [11]): 0; Cocklebur plant response rating (cocklebur; [12]): 0; Plant response rating, Crabgrass (crabgrass; [5]): 0; Crabgrass plant response rating (crabgrass; [6]): 1; Crabgrass plant response rating (crabgrass; [7]): 7; Crabgrass plant response rating (crabgrass; [8]): 3; Crabgrass plant response rating (crabgrass; [9]): 8; Plant response rating, Crabgrass (crabgrass; [10]): 9; Plant response rating, Crabgrass (crabgrass; [11]): 9; Crabgrass plant response rating (crabgrass; [12]): 9; Plant response rating, Nutsedge (purple nutsedge; [5]): 2; Nutsedge plant response rating (purple nutsedge; [6]): 2; Nutsedge plant response rating (purple nutsedge; [9]): 3; Plant response rating, Nutsedge (purple nutsedge; [10]): 7; Plant response rating, Nutsedge (purple nutsedge; [11]): 5; Nutsedge plant response rating (purple nutsedge; [12]): 4; Plant response rating, Wild oats (wild oat; [5]): 0; Wild oats plant response rating (wild oat; [6]): 0; Wild oats plant response rating (wild oat; [8]): 0; Wild oats plant response rating (wild oat; [9]): 0; Plant response rating, Wild oats (wild oat; [10]): 0; Plant response rating, Wild oats (wild oat; [11]): 0; Wild oats plant response rating (wild oat; [12]): 0; Plant response rating, Redroot pigweed (pigweed; [5]): 2; Redroot pigweed plant response rating (pigweed; [6]): 6; Redroot pigweed plant response rating (pigweed; [8]): 1; Redroot pigweed plant response rating (pigweed; [9]): 7; Plant response rating, Redroot pigweed (pigweed; [10]): 7; Plant response rating, Redroot pigweed (pigweed; [11]): 9; Redroot pigweed plant response rating (pigweed; [12]): 6; Plant response rating, Corn (corn; [5]): 0; Corn plant response rating (corn; [6]): 0; Corn plant response rating (corn; [7]): 2; Corn plant response rating (corn; [8]): 0; Corn plant response rating (corn; [9]): 0; Plant response rating, Corn (corn; [10]): 0; Plant response rating, Corn (corn; [11]): 0; Corn plant response rating (corn; [12]): 4; Plant response rating, Sugarbeets (sugar beet; [5]): 0; Sugarbeets plant response rating (sugar beet; [6]): 0; Sugarbeets plant response rating (sugar beet; [8]): 0; Sugarbeets plant response rating (sugar beet; [9]): 0; Plant response rating, Sugarbeets (sugar beet; [10]): 0; Plant response rating, Sugarbeets (sugar beet; [11]): 4; Sugarbeets plant response rating (sugar beet; [12]): 0; Plant response rating, S. Flatsedge (0 to 10 scale, 0 is no effect, 10 is complete control) (smallflower flatsedge; [1]): 0; S. Flatsedge plant response rating (0 to 10 scale, 0 is no effect, 10 is complete control) (smallflower flatsedge; [2]): 0; S. Flatsedge plant response rating (smallflower flatsedge; [3]): 0; S. Flatsedge plant response rating (smallflower flatsedge; [4]): 0; Plant response rating, Giant foxtail (giant foxtail; [5]): 0; Giant foxtail plant response rating (giant foxtail; [6]): 2; Giant foxtail plant response rating (giant foxtail; [7]): 8; Giant foxtail plant response rating (giant foxtail; [8]): 7; Giant foxtail plant response rating (giant foxtail; [9]): 10; Plant response rating, Giant foxtail (giant foxtail; [10]): 10; Plant response rating, Giant foxtail (giant foxtail; [11]): 10; Giant foxtail plant response rating (giant foxtail; [12]): 8; Plant response rating, Blackgrass (blackgrass; [5]): 0; Blackgrass plant response rating (blackgrass; [6]): 0; Blackgrass plant response rating (blackgrass; [7]): 0; Blackgrass plant response rating (blackgrass; [8]): 0; Blackgrass plant response rating (blackgrass; [9]): 0; Plant response rating, Blackgrass (blackgrass; [10]): 0; Plant response rating, Blackgrass (blackgrass; [11]): 3; Blackgrass plant response rating (blackgrass; [12]): 3; Plant response rating, Soybean (soybean; [5]): 2; Soybean plant response rating (soybean; [6]): 4; Soybean plant response rating (soybean; [8]): 0; Soybean plant response rating (soybean; [9]): 0; Plant response rating, Soybean (soybean; [10]): 0; Plant response rating, Soybean (soybean; [11]): 0; Soybean plant response rating (soybean; [12]): 5
